In patent publication US20250163057A1, “DCN-1 MODULATING COMPOUNDS AND METHODS OF USE THEREOF” (Cellarity, Inc., priority 2023, published 2025) one finds IC50 data, which are given here for 12 compounds.

The test system of assay [1] is Cullin-3 (CUL3) neddylation. The assay is described as follows: AlphaLISA assay for Cullin-3 (CUL3) neddylation in TF 1 cells. The format is cell-based. The conditions noted are these: Homo sapiens, 3 hours treatment. The procedure, abridged:
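Neddylated CUL3 was quantified by AlphaLISA in lysates of TF 1 cells exposed for 3 h to test compound in IMDM without supplements. Percent inhibition set between vehicle and 1 μM DI-1548 positive control; IC50 derived by Hill-equation fitting of dose-response curves.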
For orientation: Bead proximity is the source of the signal in Alpha formats.

Assay [2] deals with DCN1 (DCUND1) protein PONY domain (Homo sapiens (Human), UniProt Q96GG9). The assay is described as follows: TR-FRET assay, DCN1 binding with FAM-labeled probe. In a few lines: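 TR-FRET ratio (Tb-DCN1 to FAM-probe) read at 1, 5 and 24 hrs after compound addition. Protein: recombinant PONY domain from E. coli, biotinylated and coupled to streptavidin terbium. Either 5 nM DCN1 with 20 nM FAM-probe, or 0.31 nM DCN1 with 100 nM FAM-labelled plus 800 nM unlabelled probe.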
DCN1 (DCUND1) protein PONY domain, sequence (Q96GG9 60-248): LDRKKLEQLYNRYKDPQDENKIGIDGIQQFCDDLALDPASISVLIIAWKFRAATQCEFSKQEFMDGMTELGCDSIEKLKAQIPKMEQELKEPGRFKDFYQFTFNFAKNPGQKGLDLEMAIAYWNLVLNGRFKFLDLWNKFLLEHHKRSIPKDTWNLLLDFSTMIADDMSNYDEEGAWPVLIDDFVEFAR
(In general: TR-FRET usually uses a lanthanide donor and a delayed reading to cut background.)

[3] abbreviates: 24 hr after treatment with compound, read-out: TR FRET IC50 24 hr.
Setting [4] is: TR FRET IC50 1 hr (nM), 1 hr after treatment with compound.
The mark [5] stands for this setting: read-out: TR FRET IC50 1 hr, 1 hr after treatment with compound.

Read-outs that look alike come from different tables or passages of the source. A value given as a limit tells only on which side of the number the result lay.

Consider `CCN1C(=O)[C@H](NC(=O)c2cccc(C(F)(F)F)c2)[C@H](c2ccc(F)cc2)c2c(C(=O)N3CCC[C@H]3C#N)nn(-c3cccc(OCCN4CC5(COC5)C4)c3)c21` [Compound I-647], for which the IC50 (commonly the concentration that inhibits the measured activity by half) is greater than 1000 nM in assay [1] (TF-1, 3 h); 1000 to 3000 nM in assay [2] (setting [3]); 1000 to 3000 nM in assay [2] (setting [4]).
Regarding `CCN1C(=O)[C@H](NC(=O)c2cccc(C(F)(F)F)c2)[C@H](c2ccc(F)cc2)c2c(C(=O)N3CCC[C@H]3C#N)nn(-c3cccc(OCCN4CCN(C5COC5)CC4)c3)c21` [Compound I-648], the IC50 in assay [1] (TF-1, 3 h) is greater than 1000 nM; in assay [2] (setting [3]), 1000 to 3000 nM; in assay [2] (setting [4]), 1000 to 3000 nM.
As for `CCN1C(=O)[C@@H](NC(=O)c2cccc(C(F)(F)F)c2)[C@@H](c2ccc(F)cc2)c2c(C(=O)N(C)[C@@H](C#N)CCN(C)C3COC3)nn(C3CCOCC3)c21` [Compound I-654], the IC50 was no more than 100 nM in assay [1] (TF-1, 3 h); no more than 200 nM in assay [2] (setting [3]); no more than 200 nM in assay [2] (setting [5]).
On to `CCN1C(=O)[C@@H](NC(=O)c2csc3c2CCC(C)C3)[C@@H](C2CC2)c2c(C(=O)N3[C@H](C#N)C[C@H]4C[C@H]43)nn(C3CCOCC3)c21` (stereo partly drawn) [Compound I-656], for which the IC50 in assay [1] is no more than 100 nM; in assay [2] (setting [3]) it was no more than 200 nM; in assay [2] (setting [5]), no more than 200 nM.
With `CCN1C(=O)[C@@H](NC(=O)c2cccc(C(F)(F)F)c2)[C@@H](C2CC2)c2c(C(=O)N3CCOC[C@@H]3C#N)nn(-c3ccccc3)c21` [Compound I-658], the IC50 in assay [1] (TF-1, 3 h) was greater than 1000 nM; in assay [2] (setting [3]) it was 200 to 1000 nM; in assay [2] (setting [4]), 1000 to 3000 nM.
As for `CCN1C(=O)[C@@H](NC(=O)c2cccc(C(F)(F)F)c2)[C@@H](C2CC2)c2c(C(=O)N3CCS(=O)(=O)C[C@H]3C#N)nn(-c3ccccc3)c21` [Compound I-659, N-((4S,5S)-3-((R)-3-cyano-1,1-dioxidothiomorpholine-4-carbonyl)-4-cyclopropyl-7-ethyl-6-oxo-1-phenyl-4,5,6,7-tetrahydro-1H-pyrazolo[3,4-b]pyridin-5-yl)-3-(trifluoromethyl)benzamide], the IC50 in assay [1] (TF-1, 3 h) was no more than 100 nM; in assay [2] (setting [3]), no more than 200 nM; in assay [2] (setting [5]), no more than 200 nM.
Regarding `CCN1C(=O)[C@@H](NC(=O)C23CC(C(F)F)(C2)C3)[C@@H](C2CC2)c2c(C(=O)N3[C@H](C#N)C[C@H]4C[C@H]43)nn(C3CCOCC3)c21` [Compound I-662], the IC50 in assay [1] (TF-1, 3 h) was greater than 1000 nM; in assay [2] (setting [3]) it was 1000 to 3000 nM; in assay [2] (setting [4]), 1000 to 3000 nM.
As to `CCN1C(=O)[C@@H](NC(=O)c2cccc(C(F)(F)F)c2)[C@@H](C2CC2)c2c(C(=O)N(C)[C@@H](C#N)CCN(C)C3COC3)nn(C3CCOCC3)c21` [Compound I-664], the IC50 in assay [1] (TF-1, 3 h) is 100 to 1000 nM; in assay [2] (setting [3]), 200 to 1000 nM; in assay [2] (setting [4]), 200 to 1000 nM.
On to `CCN1C(=O)[C@H](NC(=O)c2cccc(C(F)(F)F)c2)[C@H](C2CC2)c2c(C(=O)N3CCC[C@H]3C#N)nn(C3CCOCC3)c21` [Compound I-666], for which the IC50 was greater than 1000 nM in assay [1] (TF-1, 3 h); 1000 to 3000 nM in assay [2] (setting [3]); 1000 to 3000 nM in assay [2] (setting [4]).
In the case of `CCN1C(=O)[C@@H](NC(=O)c2ccc3cc[nH]c3c2)[C@@H](C2CC2)c2c(C(=O)N3[C@H](C#N)C[C@H]4C[C@H]43)nn(C3CCOCC3)c21` [Compound I-667], the IC50 in assay [1] (TF-1, 3 h) is no more than 100 nM; in assay [2] (setting [3]), no more than 200 nM; in assay [2] (setting [4]) it was 200 to 1000 nM.
The matching figures for `CCN1C(=O)[C@@H](NC(=O)c2ccc3nonc3c2)[C@@H](C2CC2)c2c(C(=O)N3[C@H](C#N)C[C@H]4C[C@H]43)nn(C3CCOCC3)c21` [Compound I-668]: 100 to 1000 nM, 1000 to 3000 nM and 1000 to 3000 nM.
For the compound `CCN1C(=O)[C@@H](NC(=O)c2ccc3ncsc3c2)[C@@H](C2CC2)c2c(C(=O)N3[C@H](C#N)C[C@H]4C[C@H]43)nn(C3CCOCC3)c21` [Compound I-669], the IC50 lay within 100 to 1000 nM in assay [1] (TF-1, 3 h); 200 to 1000 nM in assay [2] (setting [3]); 1000 to 3000 nM in assay [2] (setting [4]).
